The subject of one experiment is A498. Kind of experiment: Proliferation dose-response IC50, A498. As to conditions: Homo sapiens, proliferative IC50, linear regression modeling of dose-response. Format: cell-based. How it is done: (§1) Error bars indicate standard deviation for n=2 replicates. […] To evaluate inhibition of SCD1 by these molecules, we used LC/MS to quantify changes in SCD1-catalyzed conversion of stearoyl-CoA to oleoyl-CoA in response to drug treatments in vitro using SCD1 protein extracted from murine liver (Figure 3c, Supplementary Figure 2g). […] Synthesis routes and spectral data including NMR and MS are also provided (Supplementary Figures 3-6).
(§2) Cells were seeded at 5,000 cells/well in clear-bottom 96-well plates in triplicate. Drug treatment was applied at 1:1000 in reduced serum conditions (3%). […] Alternatively, cells were plated 2x10^5/well in 12-well plates (Genesee Scientific) in triplicate prior to drug treatment. After 120-hour treatment, cell number was established using a Coulter Particle Counter (Beckman). Oleic acid-albumin (Sigma Aldrich) was added to media at 5µM, and was applied adjuvant to drug treatment. Drug stocks were prepared in DMSO (Sigma) at 1000x. IC50 dosing per cell line was calculated using CalcuSyn analytical software.

In another experiment the test system is Caki1. In words: Proliferation dose-response IC50, Caki1. Format: cell-based. As to conditions: Homo sapiens, CAKI-1; proliferative IC50, linear regression modeling of dose-response. As to the method: as §1, §2
Experiment [1] concerns the target T1, SCD1 protein extracted from murine liver (Mus musculus, UniProt P13516).
T1 construct: Microsomes were isolated from murine liver using Microsome Isolation Kit (BioVision); from tissue; host or cells: murine liver microsomes
T1 sequence (P13516 1-355): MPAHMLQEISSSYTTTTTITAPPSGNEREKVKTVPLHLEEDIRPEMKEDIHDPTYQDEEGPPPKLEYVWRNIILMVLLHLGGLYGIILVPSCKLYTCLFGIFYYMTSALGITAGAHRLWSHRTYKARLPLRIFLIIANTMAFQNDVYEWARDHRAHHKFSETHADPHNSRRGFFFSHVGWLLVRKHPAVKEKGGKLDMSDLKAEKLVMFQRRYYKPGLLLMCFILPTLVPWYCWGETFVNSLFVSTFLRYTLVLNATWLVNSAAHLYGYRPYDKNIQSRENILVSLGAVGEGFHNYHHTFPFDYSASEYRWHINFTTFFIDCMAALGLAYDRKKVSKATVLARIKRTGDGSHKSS
Kind of experiment: In vitro SCD1 enzymatic inhibition by LC/MS (stearoyl-CoA to oleoyl-CoA, liver microsomes). Format: biochemical. As to conditions: n=2. From the text:
After synthesis feasibility and cost analysis, we synthesized 38 of the selected compounds. […] To evaluate inhibition of SCD1 by these molecules, we used LC/MS to quantify changes in SCD1-catalyzed conversion of stearoyl-CoA to oleoyl-CoA in response to drug treatments in vitro using SCD1 protein extracted from murine liver (Figure 3c, Supplementary Figure 2g). […] Synthesis routes and spectral data including NMR and MS are also provided (Supplementary Figures 3-6).
Microsomes were isolated from murine liver using Microsome Isolation Kit (BioVision) per the manufacturer protocol. […] To quantify biotransformation of ^13C18-stearoyl CoA to ^13C18-oleoyl CoA for drug treatments relative to vehicle controls, supernatants were evaluated using the LC/MS^2 acyl CoA quantitation method of Magnes et al. and adapting selected reaction monitoring (SRM) for isotope-labeled acyl CoAs. […] SRM signal areas for isotope-labeled acyl CoAs were measured relative to the heptadecanoyl CoA I.S. using XCalibur software (Thermo), and percent enzyme inhibition determined by comparing ^13C18-oleoyl CoA quantities between treatment and DMSO control assays. […]
On the technique in general: Microsomes from liver hold many membrane-bound enzymes, among them those of drug oxidation.

In the next experiment the test system is RCC cell lines. In words: Proliferation assay with exogenous oleic acid (OA) rescue. Format: cell-based, Human. As to conditions: cells treated with proliferative IC50 dose, 72 hour, OA 5µg/mL. From the text: Induction of the unfolded protein response (UPR) is a known biological response to SCD1 inhibition in tumor cells. […] The addition of exogenous OA was sufficient to reverse the activation of ATF6 (Figure 4b). Moreover, exogenous OA inhibited SSI-(1-4) mediated upregulation of the UPR markers BiP (heat shock 70 kDa protein) and CHOP (damage inducible transcript 3) protein levels in both A498 and ACHN cells (Figure 4c). Collectively these findings confirm that SSI-(1-4) reliably recapitulates the biological responses observed in tumor cells treated with known SCD1 inhibitors. […] Thus, SSI-4 is not predicted to have any major off-target effects through kinase inhibition (Supplementary Figures 7 and 8).
Results are presented as relative bioluminescence (BLI). […] Beta-actin is used as a loading control. (d) Proliferative response in patient-derived normal cells, and established tumor cell lines to treatment with MF-438 or SSI-(1-4).
Cells were seeded at 5,000 cells/well in clear-bottom 96-well plates in triplicate. Drug treatment was applied at 1:1000 in reduced serum conditions (3%). After 72 hours, cells were washed with PBS, and stored at -80 °C prior to analysis using CyQuant® Proliferation Analysis Kit (Invitrogen) er manufacturers’ protocol for relative fluorescence units. […] IC50 dosing per cell line was calculated using CalcuSyn analytical software.

The subject of a further experiment is Caki2. Kind of experiment: Proliferation dose-response IC50, Caki2. Format: cell-based. As to conditions: Homo sapiens, CAKI-2; proliferative IC50, linear regression modeling of dose-response. As to the method: as §1, §2
The next experiment deals with ACHN. Kind of experiment: Proliferation dose-response IC50, ACHN. Format: cell-based. As to conditions: Homo sapiens, proliferative IC50, linear regression modeling of dose-response. As to the method:
as §1, §2

Another experiment deals with SCD1. As to conditions: known inhibitor, no reference given; cited from earlier work.

For `Cc1nnc(-c2ccc(N3CCC(Oc4ccccc4C(F)(F)F)CC3)nn2)s1` [MF-438, 2-methyl-5-(6-(4-(2-(trifluoromethyl)phenoxy)piperidin-1-yl)pyridazin-3-yl)-1,3,4-thiadiazole, reference compound], the IC50 was determined as 0.008 µM in the experiment with A498; 0.007 µM in the experiment on Caki1; 1.1 nM in experiment [1]; 0.012 µM in the experiment with Caki2; 0.006 µM with ACHN. Further, the “rescue of proliferation by exogenous oleic acid (OA)” value in the experiment with RCC cell lines was “fully restored proliferation”.

As for `CNC(=O)COc1cncc(C(=O)N2CC[C@H](Oc3ccccc3Cl)C2)c1` [ChemBL375265, reference compound], the IC50 was 5 µM in the experiment with A498; 1 µM in the experiment with Caki1; 0.5 µM in the experiment on Caki2; 400 nM in the experiment with SCD1; 0.08 µM with ACHN. In addition, the “rescue of proliferation by exogenous oleic acid (OA)” value with RCC cell lines is “fully restored proliferation”.

The IC50 is the concentration that gives 50% inhibition.
